From US20260083865A1, “PROSTATE SPECIFIC MEMBRANE ANTIGEN (PSMA) LIGANDS AND USE THEREOF” (priority 2022, published 2026)
Read-outs that look alike come from different tables or passages of the source. Numbered stars: 1 amine (or outer) side, 2 acyl side, 3 side chain; on linkers, the order of the positions; unused ones are H or OH. Bridge positions count the residues as written; N and C are the ends. Square brackets hold non-standard residues; d marks the D form. Peptide text beside a SMILES is read from it. * marks the point of attachment. X3 = O=C(O)CN1CCN(CC(=O)O)CCN(CC(=O)NCCCOCCOCCOCCCN*)CCN(CC(=O)O)CC1; DOTA = O=C(O)CN1CCN(CC(=O)O)CCN(CC(=O)*)CCN(CC(=O)O)CC1; Arg(NO2) = N=C(NCCC[C@H](N)C(=O)O)N[N+](=O)[O-]; Phe(4-Cl) = N[C@@H](Cc1ccc(Cl)cc1)C(=O)O; Ethylenediamine = C(CN[*:2])N[*:1]; NMeR = CN[C@@H](CCCNC(=N)N)C(=O)O; X1 = O=C(CC1CCN([*:1])CC1)[*:2]; Aad = N[C@@H](CCCC(=O)O)C(=O)O; Lys(Me) = CNCCCC[C@H](N)C(=O)O; Suc = O=C(CCC(=O)[*:2])[*:1]; Tle = CC(C)(C)[C@H](N)C(=O)O; Aib = CC(C)(N)C(=O)O

Columns and labels:
[1] = biological target: T1, Fc-fusion protein of human PSMA (hPSMA-Fc) (Homo sapiens, UniProt Q04609); assay: Surface plasmon resonance assay (Biacore T200, single cycle kinetic); type: binding; conditions: read-out: pKD CAT (converted)
T1 construct: purchased Acro Biosystems PSA-H5264
T1 sequence (Q04609 44-750 limits assumed): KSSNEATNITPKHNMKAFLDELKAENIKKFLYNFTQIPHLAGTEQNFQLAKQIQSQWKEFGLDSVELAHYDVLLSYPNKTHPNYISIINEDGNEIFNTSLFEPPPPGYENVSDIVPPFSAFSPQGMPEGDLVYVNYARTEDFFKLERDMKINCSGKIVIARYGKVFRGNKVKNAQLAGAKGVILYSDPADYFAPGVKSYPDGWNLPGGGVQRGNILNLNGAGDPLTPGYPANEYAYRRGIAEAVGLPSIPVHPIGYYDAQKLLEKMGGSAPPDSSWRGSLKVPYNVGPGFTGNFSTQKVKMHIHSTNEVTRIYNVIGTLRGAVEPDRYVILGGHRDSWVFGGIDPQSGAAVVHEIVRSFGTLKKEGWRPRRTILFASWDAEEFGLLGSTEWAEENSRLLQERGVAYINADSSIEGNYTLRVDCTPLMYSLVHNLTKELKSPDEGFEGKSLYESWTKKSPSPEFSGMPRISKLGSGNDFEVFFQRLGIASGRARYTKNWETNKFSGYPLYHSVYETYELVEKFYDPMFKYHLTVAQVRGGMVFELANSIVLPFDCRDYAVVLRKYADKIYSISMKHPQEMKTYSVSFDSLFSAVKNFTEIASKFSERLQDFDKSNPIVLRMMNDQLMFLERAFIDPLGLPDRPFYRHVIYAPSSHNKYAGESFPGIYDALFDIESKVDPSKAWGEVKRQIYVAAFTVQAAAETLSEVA
Outline: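 KD, expressed as pKD, came from 1:1 Langmuir fits of reference- and buffer-blank-subtracted SPR data. The runs were single-cycle kinetics at 25° C in HBST/0.1% DMSO over human PSMA-Fc, captured to ~1000 RU on a peptide-coated CM5 surface and regenerated with 10 mM glycine pH 1.5.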

[2] = biological target: T2, PSMA-expressing C4-2 cells (Homo sapiens, UniProt Q04609); assay: FACS binding assay (competition with 50 nM PSM-0183); conditions: read-out: pIC50 [C4-2] CAT (converted)
T2 construct: PSMA-expressing C4-2 cells (ATCC, Cat. No. CRL-3314) were cultured in RPMI-1640; host or cells: C4-2 cells
T2 sequence (Q04609 whole entry): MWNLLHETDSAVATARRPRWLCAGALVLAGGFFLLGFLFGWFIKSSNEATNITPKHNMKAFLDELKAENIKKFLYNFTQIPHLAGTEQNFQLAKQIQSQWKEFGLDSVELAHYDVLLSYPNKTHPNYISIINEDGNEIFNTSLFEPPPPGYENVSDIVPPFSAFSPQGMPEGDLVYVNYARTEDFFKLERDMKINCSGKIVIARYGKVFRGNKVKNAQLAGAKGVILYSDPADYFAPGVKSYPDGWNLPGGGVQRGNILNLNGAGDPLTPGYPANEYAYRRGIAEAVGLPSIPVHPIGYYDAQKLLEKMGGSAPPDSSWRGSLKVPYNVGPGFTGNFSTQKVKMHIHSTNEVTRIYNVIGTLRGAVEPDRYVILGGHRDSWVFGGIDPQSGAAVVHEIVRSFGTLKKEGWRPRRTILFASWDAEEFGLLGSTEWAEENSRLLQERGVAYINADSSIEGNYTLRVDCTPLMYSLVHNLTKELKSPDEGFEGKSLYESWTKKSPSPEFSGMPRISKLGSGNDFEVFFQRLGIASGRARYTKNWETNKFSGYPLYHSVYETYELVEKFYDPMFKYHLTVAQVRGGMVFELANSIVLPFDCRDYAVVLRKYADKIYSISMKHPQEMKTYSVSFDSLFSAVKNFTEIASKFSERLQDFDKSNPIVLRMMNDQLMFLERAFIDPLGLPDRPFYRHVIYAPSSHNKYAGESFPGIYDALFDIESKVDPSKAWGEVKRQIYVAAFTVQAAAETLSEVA
Outline: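 Competition format: fluorescent tracer PSM-0183 (50 nM) displaced from PSMA on C4-2 cells by a test compound titration over 1 h at 4 °C. Bound tracer was quantified as flow-cytometric AF488 median fluorescence after washing. Four-parameter logistic fits of MFI data gave IC50 and pIC50.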

[3] = SPR, hPSMA-Fc, single cycle kinetic, 25° C., category
[4] = FACS binding, C4-2 cells, competition with 50 nM PSM-0183, category
[5] = pKD category for PSMA SPR activity assay, hPSMA-Fc, 25° C.
[6] = pIC50 category of FACS binding, C4-2 cells

Q: `CNCCCC[C@@H]1NC(=O)[C@@H](NC(=O)[C@H](Cc2ccc(Cl)cc2)NC(=O)C(C)(C)NC(=O)[C@@H](NC(=O)CC2CCN(C(=O)CN3CCN(CC(=O)O)CCN(CC(=O)O)CCN(CC(=O)O)CC3)CC2)[C@@H](C)O)CSSC[C@@H](C(=O)N[C@H](C(=O)N[C@H](C(N)=O)[C@@H](C)O)C(C)(C)C)NC(=O)[C@H](CC(N)=O)NC(=O)C(C)(C)NC(=O)[C@H](CCCNC(=N)N[N+](=O)[O-])NC1=O` [PSM-0254, DOTA-Cmp-Thr-Aib-Pcf-[Cys-Lys(Me)-Eew-Aib-Asn-Cys]-Tle-Thr-NH2] ({DOTA}-[X1]T[Aib][Phe(4-Cl)]C[Lys(Me)][Arg(NO2)][Aib]NC[Tle]T-NH2; disulfide 5-10) was tested. Which Kd [1, 3] did it give?
A: < 12.6 nM

Q: What about the IC50 [2, 4] of the same compound?
A: < 200 nM

Q: What does the source list for `CC(=O)N[C@H](C(=O)NC(C)(C)C(=O)N[C@@H](Cc1ccccc1)C(=O)N[C@H]1CSSC[C@@H](C(=O)N[C@H](C(=O)N[C@H](C(N)=O)[C@@H](C)O)C(C)(C)C)NC(=O)[C@H](CC(N)=O)NC(=O)C(C)(C)NC(=O)[C@H](CCCNC(=N)N)N(C)C(=O)[C@H](CCCCN)NC1=O)[C@@H](C)O` [PSM-0235, Ac-Thr-Aib-Phe-[Cys-Lys-Nmr-Aib-Asn-Cys]-Tle-Thr-NH2] (Ac-T[Aib]FCK[NMeR][Aib]NC[Tle]T-NH2; disulfide 4-9)?
A: Kd [1, 3]: 126 to 501 nM; IC50 [2, 4]: 200 to 1260 nM

Q: For `CC(=O)N[C@H](C(=O)NC(C)(C)C(=O)N[C@@H](Cc1ccccc1)C(=O)N[C@H]1CSSC[C@@H](C(=O)N[C@H](C(=O)N[C@H](C(N)=O)[C@@H](C)O)C(C)(C)C)NC(=O)[C@H](Cc2c[nH]c3ccccc23)NC(=O)C(C)(C)NC(=O)[C@H](CCCNC(=N)N)NC(=O)[C@H](CCCCN)NC1=O)[C@@H](C)O` [PSM-0589, Ac-Thr-Aib-Phe-[Cys-Lys-Arg-Aib-Trp-Cys]-Tle-Thr-NH2] (Ac-T[Aib]FCKR[Aib]WC[Tle]T-NH2; disulfide 4-9), which Kd ([1]; PSMA SPR assay, category) is on record?
A: < 12.6 nM

Q: And the IC50 ([2]; FACS binding, C4-2 cells, category)?
A: < 200 nM

Q: For `C[C@@H]1NC(=O)[C@H](CCCNC(=N)N)NC(=O)[C@H](CCCCN)NC(=O)[C@@H](NC(=O)[C@H](Cc2ccccc2)NC(=O)C(C)(C)NC(=O)[C@@H](NC(=O)CCC(=O)NCCCOCCOCCOCCCNC(=O)CN2CCN(CC(=O)O)CCN(CC(=O)O)CCN(CC(=O)O)CC2)[C@@H](C)O)CSSC[C@@H](C(=O)N[C@H](C(=O)N[C@H](C(=O)N[C@@H](CC(=O)O)C(N)=O)[C@@H](C)O)C(C)(C)C)NC(=O)[C@H](CC(N)=O)NC1=O` [PSM-0193, DOTA-Ttds-Thr-Aib-Phe-[Cys-Lys-Arg-Ala-Asn-Cys]-Tle-Thr-Asp-NH2] ({X3-Suc}-T[Aib]FCKRANC[Tle]TD-NH2; disulfide 4-9), which Kd [1, 3] is on record?
A: < 12.6 nM

Q: What about the IC50 [2, 4] of the same compound?
A: < 200 nM

Q: How did the Kd [1, 5] turn out when `CC(=O)N1CCC(CC(=O)N[C@H](C(=O)NC(C)(C)C(=O)N[C@@H](Cc2ccc(Cl)cc2)C(=O)N[C@H]2CSSC[C@@H](C(=O)N[C@H](C(=O)NCCNC(=O)CN3CCN(CC(=O)O)CCN(CC(=O)O)CCN(CC(=O)O)CC3)C(C)(C)C)NC(=O)[C@H](CC(N)=O)NC(=O)C(C)(C)NC(=O)[C@H](CCCNC(=N)N)NC(=O)[C@H](CCCCN)NC2=O)[C@@H](C)O)CC1` [PSM-0379, Ac-Cmp-Thr-Aib-Pcf-[Cys-Lys-Arg-Aib-Asn-Cys]-Tle-en-DOTA] (Ac-[X1]T[Aib][Phe(4-Cl)]CKR[Aib]NC[Tle]-{Ethylenediamine-DOTA}; disulfide 5-10) was run?
A: < 12.6 nM

Q: What about the IC50 [2, 6] of the same compound?
A: < 200 nM

Q: How did the Kd ([1]; PSMA SPR assay, hPSMA-Fc, 25° C., pKD category) turn out when `CC(=O)N[C@H](C(=O)NC(C)(C)C(=O)N[C@@H](Cc1ccccc1)C(=O)N[C@H]1CSSC[C@@H](C(=O)N[C@H](C(=O)N[C@H](C(=O)N[C@@H](CC(=O)O)C(N)=O)[C@@H](C)O)C(C)(C)C)NC(=O)[C@H](CC(N)=O)NC(=O)C(C)(C)NC(=O)[C@H](CCC(N)=O)NC(=O)[C@H](CCCCN)NC1=O)[C@@H](C)O` [PSM-0334, Ac-Thr-Aib-Phe-[Cys-Lys-Gln-Aib-Asn-Cys]-Tle-Thr-Asp-NH2] (Ac-T[Aib]FCKQ[Aib]NC[Tle]TD-NH2; disulfide 4-9) was run?
A: 12.6 to 126 nM

Q: And the IC50 ([2]; FACS binding, PSMA-expressing C4-2 cells, pIC50 category)?
A: < 200 nM

Q: Which Kd [1, 5] does the source give for `C[C@@H](O)[C@H](NC(=O)[C@@H](NC(=O)[C@@H]1CSSC[C@H](NC(=O)[C@H](Cc2ccc(Cl)cc2)NC(=O)C(C)(C)NC(=O)[C@@H](NC(=O)CC2CCN(C(=O)CN3CCN(CC(=O)O)CCN(CC(=O)O)CCN(CC(=O)O)CC3)CC2)[C@@H](C)O)C(=O)N[C@@H](CCCC(N)=O)C(=O)N[C@@H](CCCNC(=N)N)C(=O)NC(C)(C)C(=O)N[C@@H](CC(N)=O)C(=O)N1)C(C)(C)C)C(N)=O` [PSM-0485, DOTA-Cmp-Thr-Aib-Pcf-[Cys-Hgn-Arg-Aib-Asn-Cys]-Tle-Thr-NH2] ({DOTA}-[X1]T[Aib][Phe(4-Cl)]C[Aad](NH2)R[Aib]NC[Tle]T-NH2; disulfide 5-10) here?
A: < 12.6 nM

Q: And the IC50 [2, 6]?
A: < 200 nM
